Among the data in article PMC7894522, “Structure Based Design of Bicyclic Peptide Inhibitors of RbAp48” (Angewandte Chemie (International Ed. in English), 2020) are induction values, retold here.

The assay relates to U2OS cells. Kind of assay: Morphological cell painting assay. It is filed as cell-based. To be noted: U2OS cells, 20 h, 579 parameters, fraction of significantly changed parameters vs DMSO; 10, 3 or 1 µM. The text has this:
Encouraged by the promising results from the pulldown experiment, and in order to get insight into bioactivity and possible mode of action, we analyzed peptide 33 in a morphological cell painting assay. The cell painting assay is a target agnostic assay which determines a cells morphological profile after treatment with a compound of interest and compares it to the profiles of a set of reference compounds. ^[22] By identifying reference compounds with a similar profile a hypothesis of the compounds mode of action can be generated based on their annotated targets. ^[23] U2OS cells were treated with our compound and 579 parameters were analyzed. […] We therefore synthesized a variant modified with an N‐terminal TAT sequence to enhance its permeability (compound 49, see Table 1 and Supplemental Figure 4). ^[24] […] Applying compound 49 to the cell painting assay led to an induction of 5.9 % and the corresponding profile was compared to the set of 3000 reference compounds. […] To validate this hypothesis, we exposed U2OS cells to compound 49 and evaluated the levels of p53 by Western blot. […] The exact mechanism by which the compounds elevate levels of p53 requires further investigation. However, it has previously been shown that the NuRD complex, of which RbAp48 is a core component, is able to deacetylate p53 and thereby modulate its stability. ^[26] The effect is mediated by the MTA family of proteins from which the compounds described here are derived. […]
The described assay follows closely the method described by Bray et al. Initially, 5 µl U2OS medium were added to each well of a 384 -well plate (PerkinElmer CellCarrier -384 Ultra). Subsequently, U2OS cell were seeded with a density of 1600 cells per well in 20 µl medium. The plate was incubated for 10 min at the ambient temperatu re, followed by an a dditional 4 h incubation (37 °C, 5 % CO2). Compound treatment was performed with the Echo 520 acoustic dispenser (Labcyte) at final concentrations of 10 µM, 3 µM or 1 µM. Incubation with compound was performed for 20 h (37 °C, 5 % CO2). Subsequently, mitoc hondria were stained with Mito Tracker Deep Red (Thermo Fisher Scientific, Cat. No. M22426). The Mito Tracker Deep Red stock solution (1 mM) was diluted to a final concentration of 100 nM in prewarmed medium. The medium was removed fr om the plate leaving 1 0 µl residual volume and 25 µl of the Mito Tracker solution were added to each well. 22 The plate was incubated for 30 min in darkness (37 °C, 5 % CO2). To fix the cells 7 µl of 18.5 % formaldehyde in PBS were added, resulting in a fi nal formaldehyde conce ntration of 3.7 %. Subsequently, the plate was incubated for another 20 min in darkness (RT) and washed three times with 70 µl of PBS. (Biotek Washer Elx405). Cells were permeabilized by addition of 25 µl 0.1 % Triton X -100 to each well, followed by 15 min incubation (RT) in darkness. The cells were washed three times with PBS leaving a final volume of 10 µl. To each well 25 µl of a staining solution were added, which contains 1 % BSA, 5 µl/mL Phalloidin (Thermo Fisher Scientific, A123 81), 25 µg/ml Concanav alin A (Thermo Fisher Scientific, Cat. […]
conjugate (Thermo Fisher Scientific, Cat. No. W11262) and […] SYTO 14 solution (Thermo Fisher Scientific, Cat. No. S7576). The plate is incubated for 30 min (RT) in darkness and washed three times with 70 µl PBS. After the final washing step the PBS was not aspirated. The plates were sealed and centrifuged for 1 min at 500 rpm.
The plates were prepare d in triplicates with shifted layouts to reduce plate effects and imaged using a Micro XL High-Content Screening System (Molecular Devices) in 5 channels (DAPI: Ex350 -400/ Em410- […]
The generated images were processed with the CellProfiler package (https://cellprofiler.org/, version 3.0.0) on a computing cluster of the Max Planck Society to extract 1716 cell features (parameters) per microscope site. The data was then further aggregated as medians per well (9 sites -> 1 well), then […]

Structures are written as SMILES. Starred links: 1 amine or outer side, 2 acyl side, 3 side chain; linkers in the order of their positions; H or OH if unused. Positions of bridges follow the written chain, without caps; N, C: chain ends. Residues, ends and D or L forms follow the SMILES beside them. TBMB = c1c(C[*:1])cc(C[*:3])cc1C[*:2]

In the case of `CC(=O)N[C@H]1CSCc2cc3cc(c2)CSC[C@@H](C(=O)N[C@@H](C)C(N)=O)NC(=O)[C@@H]2CCCN2C(=O)[C@H](CCCCN)NC(=O)[C@H](Cc2ccc(O)cc2)NC(=O)[C@@H]2CCCN2C(=O)[C@H](CCCNC(=N)N)NC(=O)[C@H](CCCNC(=N)N)NC(=O)[C@H](C)NC(=O)[C@H](CSC3)NC(=O)[C@H](CCCNC(=N)N)NC(=O)[C@H](CCCCN)NC(=O)[C@H]([C@@H](C)O)NC1=O` [Peptide 33] (Ac-CTKRCARRPYKPCA-NH2; linker 1-5-13 via TBMB), the induction entry is listed as “no induction”.
